Experimental data as given in patent US6376518B1, “Acyl derivatives of 4-demethylpenclomedine, use thereof and preparation thereof” (Southern Research Institute, priority 1999, dated 2002).
Marks after values point to notes of the source that are not given here.

Tests used:
[1] = tested on: human MX-1 mammary tumor; test: In vivo antitumor activity vs s.c.-implanted human MX-1 mammary tumor xenograft in athymic mice; conditions: sc MX-1
[2] = tested on: human MX-1 mammary tumor; test: In vivo antitumor activity vs i.c.-implanted human MX-1 mammary tumor xenograft in athymic mice; conditions: ic MX-1
[3] = oral (gavage) 135 mg/kg/dose, Days 13-17
[4] = optimal doses (LD10 or less), schedule QD1-5, administered LP.

| Compound | Tumor-Free-Surv/Total ([1]; IP 135 mg/kg/dose, Days 11-15) | T-C [1, 3] [days] | Tumor-Free-Surv/Total [1, 3] | Median % ILS (dying mice only) ([2]; IP 135 mg/kg/dose, Days 1-5) | Median % ILS (dying mice only) ([2]; oral (gavage) 135 mg/kg/dose, Days 1-5) | Tumor-Free-Surv/Total ([1]; IP 90 mg/kg/dose, Days 12-16) | Median % ILS (dying mice only) ([2]; IP 90 mg/kg/dose, Days 1-5) | activity against i.c.-implanted tumor in comparison to PEN and DM-PEN (in words) [2] | Tumor-Free-Surv/Total ([2]; IP 135 mg/kg/dose, Days 1-5) | Median % ILS (based on dying mice only) [2, 4] | Survivors [2, 4] |
| --- | --- | --- | --- | --- | --- | --- | --- | --- | --- | --- | --- |
| COc1nc(C(Cl)(Cl)Cl)c(Cl)c(OC(=O)C(C)(C)C)c1Cl [DM-P-PEN] | 5/5 | 0.9 | 0/5 | +64% | +20% |  |  |  |  |  |  |
| COc1nc(C(Cl)(Cl)Cl)c(Cl)c(OC(=O)Cc2cccs2)c1Cl [DM-TA-PEN] |  |  |  |  |  | 3/5 | +75% |  |  |  |  |
| COc1nc(C(Cl)(Cl)Cl)c(Cl)c(OC(=O)c2cccs2)c1Cl [DM-TC-PEN] |  |  |  | +100% |  | 4/5 |  | significant activity | 0/5 | 100^d % | 0/5 |
